Assay results: US6737383B1, “Herbicidal oxadiazolidines” (priority 1999, dated 2004)

Columns and labels:
blackgrass = assay: Test B pre/postemergence blackgrass; assay type: in vivo, Alopecurus myosuroides
How it was run: (§1)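 Response is a visual 0-to-10 score relative to untreated plants, where 0 means no effect and 10 means complete control, taken twelve to sixteen days after application. Treatments went onto soil at planting and onto foliage of 1- to 4-leaf plants, using a surfactant-containing non-phytotoxic solvent.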

bamyardgrass = assay: Test B flood test barnyardgrass; assay type: in vivo, Echinochloa crus-galli
How it was run: (§2)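 Read-out is a visual response score from 0 (no effect) to 10 (complete control), assigned by comparison with untreated controls. Treatment was applied at the 2-leaf stage, and plants stayed in the greenhouse for twelve to sixteen days before scoring.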

corn = assay: Test B pre/postemergence corn; assay type: in vivo, Zea mays; settings: for Corn plant response rating: scale of 0 to 10 where 0 is no effect and 10 is complete control
How it was run: as §1

smallflower flatsedge = assay: Test B flood test smallflower flatsedge; assay type: in vivo, Cyperus difformis
How it was run: as §2

pigweed = assay: Test B pre/postemergence pigweed; assay type: in vivo, Amaranthus retroflexus; settings: for Redroot pigweed plant response rating: scale of 0 to 10 where 0 is no effect and 10 is complete control
How it was run: as §1

crabgrass = assay: Test B pre/postemergence crabgrass; assay type: in vivo, Digitaria sanguinalis; settings: for Crabgrass plant response rating: scale of 0 to 10 where 0 is no effect and 10 is complete control
How it was run: as §1

soybean = assay: Test B pre/postemergence soybean; assay type: in vivo, Glycine max; settings: for Soybean plant response rating: scale of 0 to 10 where 0 is no effect and 10 is complete control
How it was run: as §1

purple nutsedge = assay: Test B pre/postemergence purple nutsedge; assay type: in vivo, Cyperus rotundus; settings: for Nutsedge plant response rating: scale of 0 to 10 where 0 is no effect and 10 is complete control
How it was run: as §1

velvetleaf = assay: Test B pre/postemergence velvetleaf; assay type: in vivo, Abutilon theophrasti; settings: for Velvetleaf plant response rating: scale of 0 to 10 where 0 is no effect and 10 is complete control
How it was run: as §1

duck salad = assay: Test B flood test duck salad; assay type: in vivo, Heteranthera limosa
How it was run: as §2

rice = assay: Test B flood test rice; assay type: in vivo, Oryza sativa
How it was run: as §2

giant foxtail = assay: Test B pre/postemergence giant foxtail; assay type: in vivo, Setaria faberii; settings: for Giant foxtail plant response rating: scale of 0 to 10 where 0 is no effect and 10 is complete control
How it was run: as §1

rape = assay: Test B pre/postemergence rape; assay type: in vivo, Brassica napus; settings: for Rape plant response rating: scale of 0 to 10 where 0 is no effect and 10 is complete control
How it was run: as §1

sugar beet = assay: Test B pre/postemergence sugar beet; assay type: in vivo, Beta vulgaris; settings: for Sugarbeets plant response rating: scale of 0 to 10 where 0 is no effect and 10 is complete control
How it was run: as §1

bedstraw = assay: Test B pre/postemergence bedstraw; assay type: in vivo, Galium aparine
How it was run: as §1

cocklebur = assay: Test B pre/postemergence cocklebur; assay type: in vivo, Xanthium strumarium; settings: for Cocklebur plant response rating: scale of 0 to 10 where 0 is no effect and 10 is complete control
How it was run: as §1

wild oat = assay: Test B pre/postemergence wild oat; assay type: in vivo, Avena fatua; settings: for Wild oats plant response rating: scale of 0 to 10 where 0 is no effect and 10 is complete control
How it was run: as §1

surinam grass = assay: Test B pre/postemergence surinam grass; assay type: in vivo, Brachiaria decumbens
How it was run: as §1

wheat = assay: Test B pre/postemergence wheat; assay type: in vivo, Triticum aestivum; settings: for Wheat plant response rating: scale of 0 to 10 where 0 is no effect and 10 is complete control
How it was run: as §1

morningglory = assay: Test B pre/postemergence morningglory; assay type: in vivo, Ipomoea hederacea; settings: for Morningglory plant response rating: scale of 0 to 10 where 0 is no effect and 10 is complete control
How it was run: as §1

[1] = Postemergence, Rate 125 g/ha, scale 0 to 10, 0 is no effect, 10 is complete control
[2] = Preemergence, Rate 62 g/ha, scale 0 to 10 (0 no effect, 10 complete control)
[3] = Preemergence, Rate 250 g/ha, scale of 0 to 10 where 0 is no effect and 10 is complete control
[4] = Preemergence, Rate 500 g/ha, scale of 0 to 10 where 0 is no effect and 10 is complete control
[5] = Rate 62 g/ha, Postemergence, scale of 0 to 10 where 0 is no effect and 10 is complete control
[6] = Rate 250 g/ha, Postemergence, scale of 0 to 10 where 0 is no effect and 10 is complete control
[7] = Rate 500 g/ha, Postemergence, scale 0 to 10, 0 no effect, 10 complete control
[8] = Postemergence (flood test), Rate 125 g/ha, scale 0 to 10, 0 is no effect, 10 is complete control
[9] = Rate 62 g/ha, Postemergence (flood test species), scale of 0 to 10 where 0 is no effect and 10 is complete control
[10] = Rate 500 g/ha, listed under Postemergence (flood test species), scale 0 to 10, 0 no effect, 10 complete control

CC(C)C(C)n1c(=O)on(C(=O)N(c2ccccc2)C(C)C)c1=O (centres unmarked) [Compound 355]
1: Barnyardgrass plant response rating (bamyardgrass; [9]) | Soybean plant response rating (soybean; Rate 62 g/ha, Postemergence)
5: Blackgrass plant response rating (blackgrass; [3]) | Velvetleaf plant response rating (velvetleaf; Preemergence, Rate 500 g/ha) | Rape plant response rating (rape; Preemergence, Rate 500 g/ha) | Plant response rating, Wild oats (wild oat; [7]) | Plant response rating, Morningglory (morningglory; [1])
4: Blackgrass plant response rating (0 to 10 scale) (blackgrass; Preemergence, Rate 125 g/ha) | Corn plant response rating (corn; Preemergence, Rate 500 g/ha) | Plant response rating, Crabgrass (crabgrass; [2]) | Plant response rating, Cocklebur (cocklebur; [7])
7: Redroot pigweed plant response rating (0 to 10 scale) (pigweed; Preemergence, Rate 125 g/ha)
8: Plant response rating, Barnyardgrass (bamyardgrass; [8]) | Plant response rating, Barnyardgrass (bamyardgrass; Rate 250 g/ha, Postemergence (flood test species), scale of 0 to 10 where 0 is no effect and 10 is complete control) | Plant response rating, Barnyardgrass (bamyardgrass; [10]) | Plant response rating, S. Flatsedge (smallflower flatsedge; [10]) | Plant response rating, Giant foxtail (giant foxtail; [7]) | Plant response rating, Morningglory (morningglory; [7])
0: Plant response rating, Corn (corn; [1]) | Plant response rating, Corn (corn; [2]) | Corn plant response rating (0 to 10 scale) (corn; Preemergence, Rate 125 g/ha) | Corn plant response rating (corn; Rate 62 g/ha, Postemergence) | Plant response rating, Corn (corn; [7]) | S. Flatsedge plant response rating (smallflower flatsedge; [9]) | Plant response rating, Redroot pigweed (pigweed; [1]) | Redroot pigweed plant response rating (pigweed; Rate 62 g/ha, Postemergence) | Plant response rating, Crabgrass (crabgrass; [1]) | Crabgrass plant response rating (crabgrass; Rate 62 g/ha, Postemergence) | Plant response rating, Soybean (soybean; [2]) | Soybean plant response rating (0 to 10 scale) (soybean; Preemergence, Rate 125 g/ha) | Soybean plant response rating (soybean; Preemergence, Rate 250 g/ha) | Soybean plant response rating (soybean; Preemergence, Rate 500 g/ha) | Plant response rating, Nutsedge (purple nutsedge; [1]) | Plant response rating, Nutsedge (purple nutsedge; [2]) | Nutsedge plant response rating (0 to 10 scale) (purple nutsedge; Preemergence, Rate 125 g/ha) | Nutsedge plant response rating (purple nutsedge; Preemergence, Rate 250 g/ha) | Nutsedge plant response rating (purple nutsedge; Preemergence, Rate 500 g/ha) | Nutsedge plant response rating (purple nutsedge; Rate 62 g/ha, Postemergence) | Plant response rating, Nutsedge (purple nutsedge; [7]) | Plant response rating, Velvetleaf (velvetleaf; [1]) | Plant response rating, Velvetleaf (velvetleaf; [2]) | Velvetleaf plant response rating (velvetleaf; Rate 62 g/ha, Postemergence) | Plant response rating, Ducksalad (duck salad; [8]) | Ducksalad plant response rating (duck salad; [9]) | Plant response rating, Ducksalad (duck salad; [10]) | Plant response rating, Rice (rice; [8]) | Rice plant response rating (rice; [9]) | Plant response rating, Rice (rice; [10]) | Plant response rating, Rape (rape; [1]) | Plant response rating, Rape (rape; [2]) | Rape plant response rating (0 to 10 scale) (rape; Preemergence, Rate 125 g/ha) | Rape plant response rating (rape; Preemergence, Rate 250 g/ha) | Rape plant response rating (rape; Rate 62 g/ha, Postemergence) | Plant response rating, Rape (rape; [7]) | Plant response rating, Sugarbeets (sugar beet; [1]) | Plant response rating, Sugarbeets (sugar beet; [2]) | Sugarbeets plant response rating (0 to 10 scale) (sugar beet; Preemergence, Rate 125 g/ha) | Sugarbeets plant response rating (sugar beet; Rate 62 g/ha, Postemergence) | Plant response rating, Sugarbeets (sugar beet; [7]) | Plant response rating, Bedstraw (bedstraw; [1]) | Plant response rating, Bedstraw (bedstraw; [2]) | Bedstraw plant response rating (bedstraw; [3]) | Bedstraw plant response rating (bedstraw; [5]) | Plant response rating, Bedstraw (bedstraw; [6]) | Plant response rating, Bedstraw (bedstraw; [7]) | Plant response rating, Cocklebur (cocklebur; [1]) | Plant response rating, Cocklebur (cocklebur; [2]) | Cocklebur plant response rating (0 to 10 scale) (cocklebur; Preemergence, Rate 125 g/ha) | Cocklebur plant response rating (cocklebur; Preemergence, Rate 250 g/ha) | Cocklebur plant response rating (cocklebur; Rate 62 g/ha, Postemergence) | Plant response rating, Wild oats (wild oat; [2]) | Wild oats plant response rating (0 to 10 scale) (wild oat; Preemergence, Rate 125 g/ha) | Wild oats plant response rating (wild oat; Preemergence, Rate 250 g/ha) | Wild oats plant response rating (wild oat; Rate 62 g/ha, Postemergence) | Plant response rating, B. signalgrass (surinam grass; [1]) | Plant response rating, B. signalgrass (surinam grass; [2]) | B. signalgrass plant response rating (surinam grass; [5]) | Plant response rating, B. signalgrass (surinam grass; [6]) | Plant response rating, Wheat (wheat; [2]) | Wheat plant response rating (0 to 10 scale) (wheat; Preemergence, Rate 125 g/ha) | Wheat plant response rating (wheat; Preemergence, Rate 250 g/ha) | Wheat plant response rating (wheat; Rate 62 g/ha, Postemergence) | Plant response rating, Morningglory (morningglory; [2]) | Morningglory plant response rating (0 to 10 scale) (morningglory; Preemergence, Rate 125 g/ha) | Morningglory plant response rating (morningglory; Preemergence, Rate 250 g/ha)
9: Bedstraw plant response rating (bedstraw; [4]) | Wild oats plant response rating (wild oat; Preemergence, Rate 500 g/ha)
10: Blackgrass plant response rating (blackgrass; [4]) | Redroot pigweed plant response rating (pigweed; Preemergence, Rate 250 g/ha) | Redroot pigweed plant response rating (pigweed; Preemergence, Rate 500 g/ha) | Crabgrass plant response rating (0 to 10 scale) (crabgrass; Preemergence, Rate 125 g/ha) | Crabgrass plant response rating (crabgrass; Preemergence, Rate 250 g/ha) | Crabgrass plant response rating (crabgrass; Preemergence, Rate 500 g/ha) | Plant response rating, Giant foxtail (giant foxtail; [2]) | Giant foxtail plant response rating (0 to 10 scale) (giant foxtail; Preemergence, Rate 125 g/ha) | Giant foxtail plant response rating (giant foxtail; Preemergence, Rate 250 g/ha) | Giant foxtail plant response rating (giant foxtail; Preemergence, Rate 500 g/ha)
3: Plant response rating, Blackgrass (blackgrass; [1]) | Blackgrass plant response rating (blackgrass; [5]) | Corn plant response rating (corn; Preemergence, Rate 250 g/ha) | Plant response rating, Redroot pigweed (pigweed; [7]) | Plant response rating, Soybean (soybean; [7]) | Velvetleaf plant response rating (velvetleaf; Preemergence, Rate 250 g/ha) | Sugarbeets plant response rating (sugar beet; Preemergence, Rate 500 g/ha) | Plant response rating, Wild oats (wild oat; [1]) | B. signalgrass plant response rating (surinam grass; [3]) | Plant response rating, Wheat (wheat; [7])
2: Plant response rating, Blackgrass (blackgrass; [2]) | Plant response rating, S. Flatsedge (smallflower flatsedge; [8]) | Plant response rating, Crabgrass (crabgrass; [7]) | Plant response rating, Soybean (soybean; [1]) | Velvetleaf plant response rating (0 to 10 scale) (velvetleaf; Preemergence, Rate 125 g/ha) | Plant response rating, Velvetleaf (velvetleaf; [7]) | Plant response rating, Giant foxtail (giant foxtail; [1]) | Giant foxtail plant response rating (giant foxtail; Rate 62 g/ha, Postemergence) | Sugarbeets plant response rating (sugar beet; Preemergence, Rate 250 g/ha) | B. signalgrass plant response rating (0 to 10 scale, 0 is no effect, 10 is complete control) (surinam grass; Preemergence, Rate 125 g/ha) | Plant response rating, B. signalgrass (surinam grass; [7]) | Plant response rating, Wheat (wheat; [1]) | Wheat plant response rating (wheat; Preemergence, Rate 500 g/ha) | Morningglory plant response rating (morningglory; Preemergence, Rate 500 g/ha) | Morningglory plant response rating (morningglory; Rate 62 g/ha, Postemergence)
6: Plant response rating, Blackgrass (blackgrass; [6]) | Plant response rating, Blackgrass (blackgrass; [7]) | B. signalgrass plant response rating (surinam grass; [4])
